{
  "source": "ChEMBL document CHEMBL1152450",
  "about": "(J Med Chem, 2009)",
  "data": [
    {"test_system": "SARS-CoV", "experiment": "(§1) Antiviral activity against SARS coronavirus in african green monkey Vero E6 cells assessed as inhibition of replication after 48 hrs", "assay_type": "functional, organism-based, Severe acute respiratory syndrome-related coronavirus", "conditions": "Severe acute respiratory syndrome-related coronavirus, Vero, 48 h; read-out: EC50; call rule not given here", "units": {"EC50": "µM"}, "values": [
      {"molecule": "CNCc1ccc(C)c(C(=O)N[C@H](C)c2cccc3ccccc23)c1", "EC50": 5.2},
      {"molecule": "Cc1ccc(CN)cc1C(=O)N[C@H](C)c1cccc2ccccc12", "EC50": 6}
    ]},
    {"test_system": "SARS-CoV", "experiment": "as §1", "assay_type": "functional, organism-based, Severe acute respiratory syndrome-related coronavirus", "conditions": "vero", "values": [
      {"molecule": "Cc1ccc(CNC(=O)OC(C)(C)C)cc1C(=O)N[C@H](C)c1cccc2ccccc12", "EC50": "Not Active"},
      {"molecule": "Cc1ccccc1C(=O)N[C@H](C)c1ccc2ccccc2c1", "EC50": "Not Active"},
      {"molecule": "Cc1ccc(N)cc1C(=O)NC(C)(C)c1cccc2ccccc12", "EC50": "Not Active"},
      {"molecule": "Cc1cccc(C(=O)N[C@H](C)c2ccc3ccccc3c2)c1", "EC50": "Not Active"},
      {"molecule": "Cc1ccccc1C(=O)NC(C)c1ccc2ccccc2c1", "note": "(racemic)", "EC50": "Not Active"}
    ]},
    {"test_system": "not listed separately", "experiment": "Inhibition of SARS coronavirus PLpro residues 1541-1855 expressed in Escherichia coli", "design": "species or system Severe acute respiratory syndrome-related coronavirus", "conditions": "not given", "values": [
      {"molecule": "C[C@@H](NC(=O)c1ccccc1O)c1ccc2ccccc2c1", "IC50": "Not Active"},
      {"molecule": "C[C@@H](NC(=O)c1ccc(NC(=O)OC(C)(C)C)cc1)c1ccc2ccccc2c1", "IC50": "Not Active"},
      {"molecule": "CCC(NC(=O)c1ccccc1C)c1ccc2ccccc2c1", "note": "(racemic)", "IC50": "Not Active"},
      {"molecule": "Cc1ccccc1C(=O)NC(c1ccccc1)c1ccc2ccccc2c1", "note": "(racemic)", "IC50": "Not Active"}
    ]}
  ]
}
